Laboratory results reported in patent publication EP1816136A1, “GPR7-SELECTIVE LIGAND AND USE THEREOF” (BANYU PHARMACEUTICAL CO., LTD., priority 2004, dated 2006).
Non-standard residues stand in square brackets, D forms with d. Residues, ends and D or L forms follow the SMILES beside them. 3Abz = Nc1cccc(C(=O)O)c1; 4Abz = Nc1ccc(C(=O)O)cc1; 2Abz = Nc1ccccc1C(=O)O; Ava = NCCCCC(=O)O

What was measured:
GPR7 [1] = target: T1, GPR7 (Homo sapiens, UniProt P48145); assay: Binding inhibition test with [125I]-[Phe2]-hNPW(1-23), GPR7 membrane preparation
T1 construct: expressed in transfected cells; host or cells: HEK293/CRE-BLA cells (AURORA), expression vector pIRES-hygro (Clontech)
T1 sequence (P48145 1-328): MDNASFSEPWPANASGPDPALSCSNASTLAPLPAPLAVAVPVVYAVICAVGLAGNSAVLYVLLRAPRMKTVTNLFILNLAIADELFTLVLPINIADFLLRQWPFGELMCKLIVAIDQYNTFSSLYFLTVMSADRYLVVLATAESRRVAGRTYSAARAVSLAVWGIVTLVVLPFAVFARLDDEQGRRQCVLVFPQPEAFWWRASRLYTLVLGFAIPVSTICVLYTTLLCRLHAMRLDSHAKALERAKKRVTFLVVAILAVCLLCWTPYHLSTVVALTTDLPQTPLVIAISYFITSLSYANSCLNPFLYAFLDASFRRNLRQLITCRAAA
Method: (§1) One nmol of [Phe2]-hNPW(1-23) (prepared in Synthesis Example 19) was dissolved in 5 µL of anhydrous DMSO, and the solution was mixed with 0.1M nickel chloride. Then, the mixture was mixed with 10 µL of a 0.00 1 % aqueous solution of hydrogen peroxide, 10 µL of an enzyme solution (lactoperoxidase (Sigma) adjusted to 10 µg/mL with a 0.1M HEPES buffer solution), and 37 Mbq/10 µL of Iodine-125 (Amersham), whereafter the resulting mixture was reacted for 60 minutes at room temperature. The reaction was terminated with the addition of 10 µL of 1% sodium azide, and then a radiolabeled peptide fraction was collected by a PD-10 gel filtration column (Amersham) to obtain [^125I]-[Phe2]-hNPW(1-23).
(§2) A cDNA sequence coding for human GPR7 or GPR8 [see Genomics, vol. 28, p. 84 (1995)] was amplified by the PCR method, and cloned using the expression vector pIRES-hygro (Clontech). The resulting expression vector was transfected into HEK293/CRE-BLA cells (AURORA) using the cationic lipid method [see Proceedings of the National Academy of Sciences of the United States of America, vol. 84, p. 7413 (1987)] to obtain GPR7 or GPR8 expression cells.
(§3) A membrane preparation prepared from the cells expressing GPR7 or GPR8 was incubated for 1 hour at room temperature in an assay buffer solution (25 mM Tris buffer solution, 150 mM NaCl, pH 7.4) together with a test compound and 28,000 cpm of [^125I]-[Phe2]-hNPW(1-23). Then, the system was filtered through the glass filter GF/C. After washing with 25 mM Tris buffer solution (pH 7.4), radioactivity on the glass filter was measured. Nonspecific binding was measured in the presence of 1 µM hNPW (prepared in Synthesis Example 1), and the 50% inhibition concentration (IC50 value) of the test compound against [Phe2]-hNPW(1-23) specific binding was calculated [see Molecular Pharmacology, vol. 55, 1101 (1999)].

GPR8 [2] = target: T2, GPR8 (Homo sapiens, UniProt P48146); assay: Binding inhibition test with [125I]-[Phe2]-hNPW(1-23), GPR8 membrane preparation
T2 construct: expressed in transfected cells; host or cells: HEK293/CRE-BLA cells (AURORA), expression vector pIRES-hygro (Clontech)
Method: as §1, §2, §3

GPR8 [3] = target: T2, GPR8; assay: Measurement of activation capacity on GPR8 (CRE-BLA beta-lactamase reporter assay); format: cell-based; settings: Table 1; HEK293/CRE-BLA cells expressing GPR8; forskolin 1 µM; 3 hours at 37°C; read-out: GPR8 (nM) EC 50
From the text: as §2
(§4) In accordance with the method of Zlakarmik (see Science, 1998, vol. 279, p. 84), the activity of various synthetic peptides on GPR7 or GPR8 was measured. HEK293/CRE-BLA cells which expressed GPR7 or GPR8 (prepared in (2) of Test Example 1) were washed twice with PBS(-) buffer solution (GIBCO-BRL), and then Cell-dissociation buffer (GIBCO-BRL) was added. The system was kept at 37°C for 3 minutes in a CO2 incubator, and a culture flask was tapped to liberate the cells from the flask. After the cells were harvested by centrifugation, the cells were suspended in an Opti-MEM culture medium (GIBCO-BRL) containing 0.1 % BSA (Sigma) to count the cells and prepare a cell suspension containing 8×10^5 cells/mL. To 2 µL of a DMSO solution containing each test compound with a concentration of 50 times an end concentration, 50 µL of the 0.1% BSA-containing Opti-MEM medium incorporating forskolin (Sigma) so as to have an end concentration of 1 µM was added to form a reaction solution. To this reaction solution, 50 µL of the above cell suspension was added to initiate the reaction, and the system was incubated for 3 hours at 37°C in a CO2 incubator.
(§5) Then, using a BLA assay kit (AURORA), a coloring matter-introduced buffer solution incorporating 12 µL of Solution A [1 mM CCF2-AM/anhydrous DMSO solution], 120 µL of Solution B [100 mg/mL Pluronic 127, 0.1% acetic acid/DMSO solution], and 2 mL of Solution C [24% (w/w) PEG-400, 18% TR40/H2O] was prepared. This coloring matter-introduced buffer solution (20 µL) was added to the above-mentioned cell reaction mixture to introduce a β-lactamase substrate (CCF2-AM) into the cells. After the system was allowed to stand for 1 hour at room temperature, the fluorescence intensities of the sample at an excitation wavelength of 409 nm, at a fluorescence wavelength of 460 nm (a β-lactamase hydrolyzate of CCF), and at 530 nm (CCF) were measured. With β-lactamase activity (fluorescence intensity at 460 nm/fluorescence intensity at 530 nm) as an indicator, the activity of each of various peptides on GPR7 or GPR8 was measured, and the 50% effective concentration (EC50) of the test compound was calculated.

GPR7 [4] = target: T1, GPR7; assay: Measurement of activation capacity on GPR7 (CRE-BLA beta-lactamase reporter assay); format: cell-based; settings: Table 1; HEK293/CRE-BLA cells expressing GPR7; forskolin 1 µM; 3 hours at 37°C
From the text: as §2, §4, §5

[5] = Table 1, membrane preparation of HEK293/CRE-BLA cells expressing GPR7, 1 hour at room temperature
[6] = Table 1, membrane preparation of HEK293/CRE-BLA cells expressing GPR8, 1 hour at room temperature
[7] = Table 2, membrane preparation of cells expressing GPR7
[8] = Table 2, membrane preparation of cells expressing GPR8

T2 sequence (P48146 whole entry): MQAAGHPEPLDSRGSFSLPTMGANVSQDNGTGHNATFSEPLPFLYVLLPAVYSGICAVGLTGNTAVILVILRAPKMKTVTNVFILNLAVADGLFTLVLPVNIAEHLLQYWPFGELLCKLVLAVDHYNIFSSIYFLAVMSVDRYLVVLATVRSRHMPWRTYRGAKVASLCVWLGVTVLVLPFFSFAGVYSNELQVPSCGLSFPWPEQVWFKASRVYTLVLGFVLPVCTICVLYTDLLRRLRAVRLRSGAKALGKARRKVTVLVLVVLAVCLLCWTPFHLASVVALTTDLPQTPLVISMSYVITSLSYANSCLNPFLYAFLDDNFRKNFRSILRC

Structure (SMILES) | IC50 (GPR7 [1]; [5]) [nM] | IC50 (GPR8 [2]; [6]) [nM] | EC50 (GPR8 [3]) [nM] | EC50 (GPR7 [4]) [nM] | IC50 (GPR7 [1]; [7]) [nM] | IC50 (GPR8 [2]; [8]) [nM]
CC(C)C[C@H](NC(=O)CNC(=O)[C@H](CO)NC(=O)[C@H](CC(C)C)NC(=O)[C@H](CC(C)C)NC(=O)CNC(=O)[C@H](C)NC(=O)[C@H](C)NC(=O)[C@H](CCCNC(=N)N)NC(=O)CNC(=O)[C@@H](NC(=O)[C@H](CO)NC(=O)[C@H](Cc1ccc(O)cc1)NC(=O)[C@H](CO)NC(=O)[C@H](CO)NC(=O)[C@H](Cc1cnc[nH]1)NC(=O)CNC(=O)[C@H](C)NC(=O)[C@H](C)NC(=O)[C@@H]1CCCN1C(=O)[C@H](CCCCN)NC(=O)[C@H](Cc1ccc(O)cc1)NC(=O)[C@@H](N)Cc1c[nH]c2ccccc12)C(C)C)C(N)=O [compound 4] | 0.23 | 24 | 0.86 | 0.24 |  | 
CC(C)C[C@H](NC(=O)CNC(=O)[C@H](CO)NC(=O)[C@H](CC(C)C)NC(=O)[C@H](CC(C)C)NC(=O)CNC(=O)[C@H](C)NC(=O)[C@H](C)NC(=O)[C@H](CCCNC(=N)N)NC(=O)CNC(=O)CCCCNC(=O)CCCCNC(=O)CCCCNC(=O)CCCCNC(=O)CCCCNC(=O)[C@H](CCCCN)NC(=O)[C@H](Cc1ccc(O)cc1)NC(=O)[C@@H](N)Cc1c[nH]c2ccccc12)C(N)=O [compound 9] (H-WYK[Ava][Ava][Ava][Ava][Ava]GRAAGLLSGL-NH2) | > 100 | 2600 |  |  |  | 
CC(C)C[C@H](NC(=O)CNC(=O)[C@H](CO)NC(=O)[C@H](CC(C)C)NC(=O)[C@H](CC(C)C)NC(=O)CNC(=O)[C@H](C)NC(=O)[C@H](C)NC(=O)[C@H](CCCNC(=N)N)NC(=O)CNC(=O)c1ccccc1NC(=O)CCCCNC(=O)CCCCNC(=O)[C@H](CCCCN)NC(=O)[C@H](Cc1ccc(O)cc1)NC(=O)[C@@H](N)Cc1c[nH]c2ccccc12)C(N)=O [compound 10] (H-WYK[Ava][Ava][2Abz]GRAAGLLSGL-NH2) |  |  |  |  | 4.7 | 8000
CC(C)C[C@H](NC(=O)CNC(=O)[C@H](CO)NC(=O)[C@H](CC(C)C)NC(=O)[C@H](CC(C)C)NC(=O)CNC(=O)[C@H](C)NC(=O)[C@H](C)NC(=O)[C@H](CCCNC(=N)N)NC(=O)CNC(=O)c1cccc(NC(=O)CCCCNC(=O)CCCCNC(=O)[C@H](CCCCN)NC(=O)[C@H](Cc2ccc(O)cc2)NC(=O)[C@@H](N)Cc2c[nH]c3ccccc23)c1)C(N)=O [compound 11] (H-WYK[Ava][Ava][3Abz]GRAAGLLSGL-NH2) |  |  |  |  | 0.37 | 13
CC(C)C[C@H](NC(=O)CNC(=O)[C@H](CO)NC(=O)[C@H](CC(C)C)NC(=O)[C@H](CC(C)C)NC(=O)CNC(=O)[C@H](C)NC(=O)[C@H](C)NC(=O)[C@H](CCCNC(=N)N)NC(=O)CNC(=O)c1ccc(NC(=O)CCCCNC(=O)CCCCNC(=O)[C@H](CCCCN)NC(=O)[C@H](Cc2ccc(O)cc2)NC(=O)[C@@H](N)Cc2c[nH]c3ccccc23)cc1)C(N)=O [compound 12] (H-WYK[Ava][Ava][4Abz]GRAAGLLSGL-NH2) |  |  |  |  | 0.35 | 5.1
CC(C)C[C@H](NC(=O)CNC(=O)[C@H](CO)NC(=O)[C@H](CC(C)C)NC(=O)[C@H](CC(C)C)NC(=O)CNC(=O)[C@H](C)NC(=O)[C@H](C)NC(=O)[C@H](CCCNC(=N)N)NC(=O)CNC(=O)CCCCNC(=O)c1ccccc1NC(=O)CCCCNC(=O)[C@H](CCCCN)NC(=O)[C@H](Cc1ccc(O)cc1)NC(=O)[C@@H](N)Cc1c[nH]c2ccccc12)C(N)=O [compound 13] (H-WYK[Ava][2Abz][Ava]GRAAGLLSGL-NH2) |  |  |  |  | 0.56 | 39
CC(C)C[C@H](NC(=O)CNC(=O)[C@H](CO)NC(=O)[C@H](CC(C)C)NC(=O)[C@H](CC(C)C)NC(=O)CNC(=O)[C@H](C)NC(=O)[C@H](C)NC(=O)[C@H](CCCNC(=N)N)NC(=O)CNC(=O)CCCCNC(=O)c1cccc(NC(=O)CCCCNC(=O)[C@H](CCCCN)NC(=O)[C@H](Cc2ccc(O)cc2)NC(=O)[C@@H](N)Cc2c[nH]c3ccccc23)c1)C(N)=O [compound 14] (H-WYK[Ava][3Abz][Ava]GRAAGLLSGL-NH2) |  |  |  |  | 0.19 | 16
CC(C)C[C@H](NC(=O)CNC(=O)[C@H](CO)NC(=O)[C@H](CC(C)C)NC(=O)[C@H](CC(C)C)NC(=O)CNC(=O)[C@H](C)NC(=O)[C@H](C)NC(=O)[C@H](CCCNC(=N)N)NC(=O)CNC(=O)CCCCNC(=O)c1ccc(NC(=O)CCCCNC(=O)[C@H](CCCCN)NC(=O)[C@H](Cc2ccc(O)cc2)NC(=O)[C@@H](N)Cc2c[nH]c3ccccc23)cc1)C(N)=O [compound 15] (H-WYK[Ava][4Abz][Ava]GRAAGLLSGL-NH2) |  |  |  |  | 0.4 | 34
CC(C)C[C@H](NC(=O)CNC(=O)[C@H](CO)NC(=O)[C@H](CC(C)C)NC(=O)[C@H](CC(C)C)NC(=O)CNC(=O)[C@H](C)NC(=O)[C@H](C)NC(=O)[C@H](CCCNC(=N)N)NC(=O)CNC(=O)CCCCNC(=O)CCCCNC(=O)c1ccccc1NC(=O)[C@H](CCCCN)NC(=O)[C@H](Cc1ccc(O)cc1)NC(=O)[C@@H](N)Cc1c[nH]c2ccccc12)C(N)=O [compound 16] (H-WYK[2Abz][Ava][Ava]GRAAGLLSGL-NH2) |  |  |  |  | 1.3 | 160
CC(C)C[C@H](NC(=O)CNC(=O)[C@H](CO)NC(=O)[C@H](CC(C)C)NC(=O)[C@H](CC(C)C)NC(=O)CNC(=O)[C@H](C)NC(=O)[C@H](C)NC(=O)[C@H](CCCNC(=N)N)NC(=O)CNC(=O)CCCCNC(=O)CCCCNC(=O)c1cccc(NC(=O)[C@H](CCCCN)NC(=O)[C@H](Cc2ccc(O)cc2)NC(=O)[C@@H](N)Cc2c[nH]c3ccccc23)c1)C(N)=O [compound 17] (H-WYK[3Abz][Ava][Ava]GRAAGLLSGL-NH2) |  |  |  |  | 0.34 | 33
CC(C)C[C@H](NC(=O)CNC(=O)[C@H](CO)NC(=O)[C@H](CC(C)C)NC(=O)[C@H](CC(C)C)NC(=O)CNC(=O)[C@H](C)NC(=O)[C@H](C)NC(=O)[C@H](CCCNC(=N)N)NC(=O)CNC(=O)CCCCNC(=O)CCCCNC(=O)c1ccc(NC(=O)[C@H](CCCCN)NC(=O)[C@H](Cc2ccc(O)cc2)NC(=O)[C@@H](N)Cc2c[nH]c3ccccc23)cc1)C(N)=O [compound 18] (H-WYK[4Abz][Ava][Ava]GRAAGLLSGL-NH2) |  |  |  |  | 5.6 | 190
